These results are taken from patent US6953677B2, “Recombinant L-N-carbamoylase from Arthrobacter aurescens and method of producing L-amino acids therewith” (Degussa AG, priority 1998, dated 2005).

Data set [1] deals with rec-L-N-carbamoylase from A.a. (Paenarthrobacter aurescens, UniProt Q9F464). Type of data set: biochemical, Arthrobacter aurescens. The note with it: pH 8.5, homogeneously purified enzyme. As for the experimental part:
(§1) The substrate specificity of the carbamoylase was investigated with homogeneously purified enzyme. The latter was obtained after cell maceration and ion exchange chromatography on Streamline-DEAE- and MonoQ media. A solution of the particular substrate was produced in a concentration of 1.8 mM (exception N-carbamoyl-L-methionine: 50 mM) in 0.1 M TRIS-HCl, pH 8.5 and used instead of the standard substrate in the standard activity test. Instead of the trichloroacetic acid (TCA) used in the standard test for stopping, in the case of the substrates N-formyl-D,L-tryptophane, N-carbamoyl-L-thienylalanine and N-acetyl-D,L-tryptophane heat denaturation was used to terminate the reaction (incubation for 10 min in a boiling water bath) and in the case of the substrate N-carbamoyl-D,L-phenylalanine, addition of 900 μl methanol to 100 μl assay solution was used. The concentration of the amino acid was subsequently determined either by HPLC or colorimetrically after reaction with ninhydrin.
(§2) 5 ml of a cell culture induced with rhamnose are centrifuged at 3000 rpm for 5 min in a Heraeus Megafuge, washed with 5 ml buffer (200 mM TRIS-HCl, pH 7.0), re-centrifuged, taken up in 1 ml buffer (200 mM TRIS-HCl, 0.1 mM MnCl2 pH 7.0) and macerated by ultrasound (Ultrasonics Sonicator, microtip, 2×30 sec, duty cycle 50%). Cell fragments are removed by centrifugation in an Eppendorf centrifuge at 13000 rpm, 10 min. The supernatant, designated as raw extract, is used for the enzyme measurement. 100 μl raw extract or cleaned-up enzyme is mixed with 800 μl 2 mM N-carbamoyl amino acid preheated to 37° C. in 100 mM TRIS-HCl, pH 8.5 and incubated 10 min at 37° C. The reaction is stopped by the addition of 400 μl trichloroacetic acid. The precipitated protein is separated by centrifugation in an Eppendorf centrifuge at 13000 rpm for 10 min. The supernatant is subsequently measured in an HPLC or calorimetrically (ninhydrin). The separation of the reaction mixture takes place in an HPLC with an RP-18 column, the mobile solvent is 0.3% (V/V) phosphoric acid, 80% methanol, flow rate 1.0 ml/min. The detection takes place by measuring the UV absorption at a wavelength of 280 nm.

Substrate in data set [2]: NC(=O)NC(Cc1ccccc1)C(=O)O
The data set can be described thus: purified protein, by the assay type. Type of data set: biochemical, Arthrobacter aurescens. The note with it: other: homogeneously purified enzyme, 0.1 M TRIS-HCl, pH 8.5, 37.0 °C. The protocol:
as §1, §2

Substrate in data set [3]: NC(=O)N[C@@H](Cc1c[nH]c2ccccc12)C(=O)O
The data set is described as follows: purified protein, by the assay type. Type of data set: biochemical, Arthrobacter aurescens. The following applies: other: homogeneously purified enzyme, 0.1 M TRIS-HCl, pH 8.5, 37.0 °C. The protocol: as §1, §2

Substrate in data set [4]: NC(=O)N[C@@H](Cc1ccc(O)cc1)C(=O)O
The data set can be described thus: purified protein, by the assay type. It is filed as biochemical, Arthrobacter aurescens. The following applies: other: homogeneously purified enzyme, 0.1 M TRIS-HCl, pH 8.5, 37.0 °C. As for the experimental part:
as §1, §2

Substrate in data set [5]: NC(=O)N[C@@H](Cc1cccs1)C(=O)O
The data set can be described thus: purified protein, by the assay type. Type of data set: biochemical, Arthrobacter aurescens. The following applies: other: homogeneously purified enzyme, 0.1 M TRIS-HCl, pH 8.5, 37.0 °C. The protocol:
as §1, §2

Substrate in data set [6]: O=CNC(Cc1c[nH]c2ccccc12)C(=O)O
The data set is described as follows: purified protein, by the assay type. It is filed as biochemical, Arthrobacter aurescens. The following applies: other: homogeneously purified enzyme, 0.1 M TRIS-HCl, pH 8.5, 37.0 °C. The protocol:
as §1, §2

The nature of data set [7]: Temperature stability of the rec-L-N-carbamoylase (storage, then standard activity test). Type of data set: physicochemical, Arthrobacter aurescens. As for the experimental part: FIG. 2: Standard activity assay of the isolated recombinant Arthrobacter aurescens N-L-carbamoylase enzyme isolated from E.coli. The N-L-carbamoylase was isolated after cell maceration and ion exchange chromatography on Streamline DEAE and MonoQ media. N-L-carbamoylase activity was determined by reacting with the substrate N-carbamoyl-L-tryptophane over 100 hours wherein the concentration of the amino acid tryptophan was determined in order to calculate N-L carbamoylase activity. The N-L-carbamoylase enzyme activity was measured and reached a relative activity level of around 100% between hours 40 and […] of incubation 37° C.
[…] The standard test for determination of activity was carried out at time intervals of 1-100 h.
as §2

The nature of data set [8]: N-L-carbamoylase activity of raw extract of rhamnose-induced E. coli JM109/pAW178-2. The note with it: 9 h after rhamnose induction, approximately maximum; N-carbamoyl-L-tryptophane as substrate. Type of data set: biochemical, Arthrobacter aurescens. As for the experimental part:
1 ml of an overnight culture of E. coli JM109/pAW178-2 (FIG. 1) in LBamp is added into 100 ml fresh LBamp medium in a one-liter Erlenmeyer flask and the latter incubated at 30° C. in a water bath under agitation (200 rpm). 1 ml of a 20% rhamnose solution is added to the culture at an optical density of the culture of 0.5 (measured at a wavelength of 600 nm in a photometer) (end concentration […]) and the culture incubated further. After a further 9 h incubation approximately the maximum of the N-L-carbamoylase activity is achieved, a specific activity of 1.8 units/mg raw extract, measured with N-carbamoyl-L-tryptophane as substrate. No activity was found in cultures which had not been induced with rhamnose.
5 ml of a cell culture induced with rhamnose are centrifuged at 3000 rpm for 5 min in a Heraeus Megafuge, washed with 5 ml buffer (200 mM TRIS-HCl, pH 7.0), re-centrifuged, taken up in 1 ml buffer (200 mM TRIS-HCl, 0.1 mM MnCl2 pH 7.0) and macerated by ultrasound (Ultrasonics Sonicator, microtip, 2×30 sec, duty cycle 50%). Cell fragments are removed by centrifugation in an Eppendorf centrifuge at 13000 rpm, 10 min. The supernatant, designated as raw extract, is used for the enzyme measurement. […] The supernatant is subsequently measured in an HPLC or calorimetrically (ninhydrin). […]

Setting [9] is: substrate 1.8 mM in 0.1 M TRIS-HCl, n.n. = can not be detected.

Where two headings read alike, the source gives them in different places.

In the case of `CC(=O)NC(Cc1c[nH]c2ccccc12)C(=O)O` (racemic) [N-acetyl-D,L-tryptophane], the Activity % result in data set [1] (setting [9]) was “n.n”.

For `NC(=O)NC(CC(=O)O)C(=O)O` (racemic) [N-carbamoyl-D,L-aspartate], the Activity % result in data set [1] (setting [9]) is “n.n”.

In the case of `NC(=O)NC(Cc1ccccc1)C(=O)O` (racemic) [N-carbamoyl-D,L-phenylalanine], in data set [1] (setting [9]), the Activity % is reported as 97%.

For `O=CNC(Cc1c[nH]c2ccccc12)C(=O)O` (racemic) [N-formyl-D-L-tryptophane], the Activity % in data set [1] (setting [9]) was found to be 97%.

In the case of `NC(=O)N[C@H](Cc1ccccc1)C(=O)O` [N-carbamoyl-D-phenylalanine], the Activity % result in data set [1] (setting [9]) is listed as “n.n”.

Consider `NC(=O)N[C@@H](C(=O)O)c1ccccc1` [N-carbamoyl-D-phenylglycine], for which the Activity % entry in data set [1] (setting [9]) is “n.n”.

With `NC(=O)N[C@H](Cc1c[nH]c2ccccc12)C(=O)O` [N-carbamoyl-D-tryptophane], the Activity % result in data set [1] (setting [9]) is reported as “n.n”.

Turning to `N=C(N)NCCC[C@H](NC(N)=O)C(=O)O` [N-carbamoyl-L-arginine], the Activity % entry in data set [1] (setting [9]) was “n.n”.

For the molecule `NC(=O)N[C@@H](CCC(=O)O)C(=O)O` [N-carbamoyl-L-glutamate], the Activity % result in data set [1] (setting [9]) was “n.n”.

Take `CSCC[C@H](NC(N)=O)C(=O)O` [N-carbamoyl-L-methionine]: the Activity % in data set [1] (substrate 50 mM (exception) in 0.1 M TRIS-HCl) was 17%.

In the case of `NC(=O)N[C@H](C(=O)O)c1ccccc1` [N-carbamoyl-L-phenylglycine], the Activity % entry in data set [1] (setting [9]) is given as “n.n”.

Molecule `NC(=O)N[C@@H](Cc1cccs1)C(=O)O` [N-carbamoyl-L-thienylalanine] showed an Activity % in data set [1] (setting [9]) of 314%.

For the molecule `NC(=O)N[C@@H](Cc1c[nH]c2ccccc12)C(=O)O` [N-carbamoyl-L-tryptophane], in data set [1] (setting [9]), the Activity % is given as 100%.

For the molecule `NC(=O)N[C@@H](Cc1ccc(O)cc1)C(=O)O` [N-carbamoyl-L-tyrosine], the Activity % in data set [1] (setting [9]) worked out at 126%.

Turning to `NC(=O)NCCC(=O)O` [N-carbamoyl-β-alanine], the Activity % result in data set [1] (setting [9]) was “n.n”.

As for `O=CN[C@@H](CC(=O)O)C(=O)O` [N-formyl-L-aspartate], in data set [1] (setting [9]), the Activity % result was “n.n”.

B1: rec-L-N-carbamoylase from A.a. (Paenarthrobacter aurescens) (protein)
chain: MTLQKAQAERIEKEIRELSRFSAEGPGVTRLTYTPEHAAARETLIAAMKAAALSVREDALGNIIGRREGTDPELPAIAVGSHFDSVRNGGMFDGTAGVVCALEAARVMLENGYVNRHPFEFIAIVEEEGARFSSGMLGGRAIAGLVADRELDSLVDEDGVSVRQAATAFGLKPGELQAAARSAADLRAFIELHIEQGPILEQEQIEIGVVTSIVGVRALRVAVKGRSDHAGTTPMHLRQDALVPAALMVREVNRFVNEIADGTVATVGHLTVAPGGGNQVPGEVDFTLDLRSPHEESLRVLIDRISVMVGEVASQAGVAADVDEFFNLSPVQLAPTMVDAVREAASALQFTHRDISSGAGHDSMFIAQVTDVGMVFVPSRAGRSHVPEEWTDFDDLRKGTEVVLRVMKALDR
Consider B1, for which the Km in data set [2] was determined as 0.7 MM; in data set [3], 0.12 MM; in data set [4] it was 0.3 MM; in data set [5], 2.3 MM; in data set [6], 8.5 MM.

B2: rec-carbamoylase: recombinant L-N-carbamoylase from Arthrobacter aurescens (hyuC gene, SEQ ID NO:2) expressed in E. coli (protein, listed as Arthrobacter aurescens)
chain: MTLQKAQAARIEKEIRELSRFSAEGPGVTRLTYTPEHAAARETLIAAMKAAALSVREDALGNIIGRREGTDPELPAIAVGSHFDSVRNGGMFDGTAGVVCALEAARVMLENGYVNRHPFEFIAIVEEEGARFSSGMLGGRAIAGLVADRELDSLVDEDGVSVRQAATAFGLKPGELQAAARSAADLRAFIELHIEQGPILEQEQIEIGVVTSIVGVRALRVAVKGRSDHAGTTPMHLRQDALVPAALMVREVNRFVNEIADGTVATVGHLTVAPGGGNQVPGEVDFTLDLRSPHEESLRVLIDRISVMVGEVASQAGVAADVDEFFNLSPVQLAPTMVDAVREAASALQFTHRDISSGAGHDSMFIAQVTDVGMVFVPSRAGRSHVPEEWTDFDDLRKGTEVVLRVMKALDR
Consider B2, for which, in data set [7] (37° C., 100 h, homogeneously purified recombinant enzyme), the “activity on storage at 37° C.” value is recorded as “almost unchanged”. Besides, the “duration of activity at 50° C.” value in data set [7] (50° C.) is on record as “hours”. Further, the relative activity level result in data set [7] (between hours 40 and 140 of incubation 37° C., substrate N-carbamoyl-L-tryptophane (FIG. 2)) is “around 100%”. The specific activity in data set [8] came out at 1.8 units/mg raw extract.
